Results on 15 compounds are retold here after patent EP4755888A1 (ILAb Co., Ltd., priority 2023, dated 2025).

Bounds are passed on as bounds.

The target of the experiment is PD-1/PD-L1 (Homo sapiens, UniProt Q9NZQ7). Kind of experiment: TR-FRET PD-1/PD-L1 binding inhibition at the molecular level (free proteins). The following applies: Tag1-PD-L1 and Tag2-PD-1 proteins, twelve concentrations from 200 nM, 2 hours at room temperature, read-out: FRET assay (IC50). An outline of the steps: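 HTRF read-out at 665/620 nm after 2 h at room temperature. Detection used anti-Tag1 Eu cryptate plus anti-Tag2 XL665 antibodies. Tagged PD-L1 and PD-1 proteins were pre-mixed with compound across twelve […] 1:2 dilutions starting at 200 nM.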
Sequence of PD-1/PD-L1 (Q9NZQ7 19-238 limits assumed): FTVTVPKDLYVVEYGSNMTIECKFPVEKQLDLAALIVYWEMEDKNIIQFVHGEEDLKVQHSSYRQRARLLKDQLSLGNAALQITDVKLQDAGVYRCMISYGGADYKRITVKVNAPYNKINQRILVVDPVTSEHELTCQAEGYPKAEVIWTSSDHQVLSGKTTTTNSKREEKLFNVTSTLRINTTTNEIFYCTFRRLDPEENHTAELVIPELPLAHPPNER
As a reminder, the IC50 is the point on the concentration scale where inhibition reaches its midpoint. With `COc1cc(-c2cccc(-c3cccc(NC(=O)c4cc5n(n4)CCCC5O)c3Cl)c2Cl)cc(F)c1CNCCO` (stereo not drawn) [Compound 118, N-(2,2'-dichloro-3"-fluoro-4"-(((2-hydroxyethyl)amino)methyl)-5"-methoxy-[1,1':3',1"-terphenyl]-3-yl)-4-hydroxy-4,5,6,7-tetrahydropyrazolo[1,5-a]pyridine-2-carboxamide], the IC50 fell in the range of 10 to 100 nM. For `COc1nc(-c2cccc(-c3cccc(-c4cc5n(n4)CCCC5N4CCC(O)CC4)c3C)c2C)cnc1CNC[C@@H]1CCC(=O)N1` (stereo partly drawn) [Compound 166, (5S)-5-((((5-(3'-(4-(4-hydroxypiperidin-1-yl)-4,5,6,7-tetrahydropyrazolo[1,5-a]pyridin-2-yl)-2,2'-dimethyl-[1,1'-biphenyl]-3-yl)-3-methoxypyrazin-2-yl)methyl)amino)methyl)pyrrolidin-2-one], the IC50 is 10 to 100 nM. Consider `O=C(Nc1cccc(-c2cccc(Nc3nc(C(F)F)nc4cccnc34)c2Cl)c1Cl)c1cc2n(n1)CCC[C@@H]2N1CCC(C(=O)O)CC1` [Compound 289, (S)-1-(2-((2,2'-dichloro-3'-((2-(difluoromethyl)pyrido[3,2-d]pyrimidin-4-yl)amino)-[1,1'-biphenyl]-3-yl)carbamoyl)-4,5,6,7-tetrahydropyrazolo[1,5-a]pyridin-4-yl)piperidine-4-carboxylic acid], for which the IC50 was below 10 nM. As for `O=C(Nc1cccc(-c2cccc(Nc3nc(C(F)F)nc4cc(CN5CC(F)(F)C5)cnc34)c2Cl)c1Cl)c1cc2n(n1)CCC[C@H]2N1CCC(O)CC1` [Compound 272, (R)-N-(2,2'-dichloro-3'-((7-((3,3-difluoroazetidin-1-yl)methyl)-2-(difluoromethyl)pyrido[3,2-d]pyrimidin-4-yl)amino)-[1,1'-biphenyl]-3-yl)-4-(4-hydroxypiperidin-1-yl)-4,5,6,7-tetrahydropyrazolo[1,5-a]pyridine-2-carboxamide], the half-maximal inhibitory concentration (IC50) lay in the range of 10 to 100 nM. Consider `Cc1c(Nc2nccc3cc(CN4CC[C@@H](O)C4)cnc23)cccc1-c1cccc(-c2cc3n(n2)CCCC3N2CC[C@@H](O)C2)c1C` (stereo partly drawn) [Compound 177, (3R)-1-((8-((3'-(4-((R)-3-hydroxypyrrolidin-1-yl)-4,5,6,7-tetrahydropyrazolo[1,5-a]pyridin-2-yl)-2,2'-dimethyl-[1,1'-biphenyl]-3-yl)amino)-1,7-naphthyridin-3-yl)methyl)pyrrolidin-3-ol], for which the IC50 is below 10 nM. Consider `CN[C@@H]1CCCn2nc(C(=O)Nc3cccc(-c4cccc(Nc5nc(C(F)(F)F)nc6cccnc56)c4Cl)c3Cl)cc21` [Compound 357, (R)-N-(2,2'-dichloro-3'-((2-(trifluoromethyl)pyrido[3,2-d]pyrimidin-4-yl)amino)-[1,1'-biphenyl]-3-yl)-4-(methylamino)-4,5,6,7-tetrahydropyrazolo[1,5-a]pyridine-2-carboxamide], for which the IC50 was in the range of 10 to 100 nM. With `O=C(O)CNC1CCCn2nc(C(=O)Nc3cccc(-c4cccc(NC(=O)c5ccc(CN6CC[C@@H](O)C6)cn5)c4Cl)c3Cl)cc21` (stereo partly drawn) [Compound 104, 2-((2-((2,2'-dichloro-3'-(5-(((R)-3-hydroxypyrrolidin-1-yl)methyl)picolinamido)-[1,1'-biphenyl]-3-yl)carbamoyl)-4,5,6,7-tetrahydropyrazolo[1,5-a]pyridin-4-yl)amino)acetic acid], the IC50 is below 10 nM. Regarding `Cc1c(Nc2nccc3cc(CN4CC[C@@H](O)C4)cnc23)cccc1-c1cccc(-c2cc3n(n2)CCCC3NCC(=O)O)c1C` (stereo partly drawn) [Compound 179, 2-((2-(3'-((3-(((R)-3-hydroxypyrrolidin-1-yl)methyl)-1,7-naphthyridin-8-yl)amino)-2,2'-dimethyl-[1,1'-biphenyl]-3-yl)-4,5,6,7-tetrahydropyrazolo[1,5-a]pyridin-4-yl)amino)acetic acid], the IC50 is below 10 nM. On to `CC(=O)NCCNC1CCCn2nc(C(=O)Nc3cccc(-c4cccc(-c5nc6cc(CN7CC[C@@H](C(=O)O)C7)cc(C#N)c6o5)c4Cl)c3Cl)cc21` (stereo partly drawn) [Compound 69, (3R)-1-((2-(3'-(4-((2-acetamidoethyl)amino)-4,5,6,7-tetrahydropyrazolo[1,5-a]pyridine-2-carboxamido)-2,2'-dichloro-[1,1'-biphenyl]-3-yl)-7-cyanobenzo[d]oxazol-5-yl)methyl)pyrrolidine-3-carboxylic acid], for which the IC50 was below 10 nM. With `N#Cc1cc(CN2CC[C@@H](C(=O)O)C2)cc2nc(-c3cccc(-c4cccc(NC(=O)c5cc6n(n5)CCCC6NCCO)c4Cl)c3Cl)oc12` (stereo partly drawn) [Compound 70, (3R)-1-((7-cyano-2-(2,2'-dichloro-3'-(4-((2-hydroxyethyl)amino)-4,5,6,7-tetrahydropyrazolo[1,5-a]pyridine-2-carboxamido)-[1,1'-biphenyl]-3-yl)benzo[d]oxazol-5-yl)methyl)pyrrolidine-3-carboxylic acid], the IC50 was below 10 nM. To `COc1cc(-c2cccc(-c3cccc(NC(=O)c4cc5n(n4)CCCC5N4CC[C@@H](O)C4)c3C)c2C)cc(F)c1CNC(C)(C)C(=O)O` (stereo partly drawn) [Compound 115, 2-(((3-fluoro-3"-(4-((R)-3-hydroxypyrrolidin-1-yl)-4,5,6,7-tetrahydropyrazolo[1,5-a]pyridine-2-carboxamido)-5-methoxy-2',2"-dimethyl-[1,1':3',1"-terphenyl]-4-yl)methyl)amino)-2-methylpropanoic acid] belongs below 10 nM; to `Cc1c(NC(=O)c2ccc(CN3CC[C@@H](O)C3)cn2)cccc1-c1cccc(NC(=O)c2cc3n(n2)CCN(CCO)C3)c1C` [Compound 325, (R)-5-(2-hydroxyethyl)-N-(3'-(5-((3-hydroxypyrrolidin-1-yl)methyl)picolinamido)-2,2'-dimethyl-[1,1'-biphenyl]-3-yl)-4,5,6,7-tetrahydropyrazolo[1,5-a]pyrazine-2-carboxamide], below 10 nM; to `Cc1nc(Nc2cccc(-c3cccc(NC(=O)c4cc5n(n4)CCC[C@H]5N4CCC(C(=O)O)CC4)c3Cl)c2Cl)c2ncccc2n1` [Compound 255, (R)-1-(2-((2,2'-dichloro-3'-((2-methylpyrido[3,2-d]pyrimidin-4-yl)amino)-[1,1'-biphenyl]-3-yl)carbamoyl)-4,5,6,7-tetrahydropyrazolo[1,5-a]pyridin-4-yl)piperidine-4-carboxylic acid], 10 to 100 nM.

With `Cc1nc(Nc2cccc(-c3cccc(NC(=O)c4cc5n(n4)CCC[C@@H]5N4CC(C(=O)O)C4)c3Cl)c2Cl)c2ncccc2n1` [Compound 281, (S)-1-(2-((2,2'-dichloro-3'-((2-methylpyrido[3,2-d]pyrimidin-4-yl)amino)-[1,1'-biphenyl]-3-yl)carbamoyl)-4,5,6,7-tetrahydropyrazolo[1,5-a]pyridin-4-yl)azetidine-3-carboxylic acid], the IC50 is below 10 nM. `O=C(Nc1cccc(-c2cccc(Nc3nc(C(F)F)nc4cc(CN5CC[C@@H](O)C5)cnc34)c2Cl)c1Cl)c1cc2n(n1)CCCC2N1CCC(C(=O)O)CC1` (stereo partly drawn) [Compound 145, 1-(2-((2,2'-dichloro-3'-((2-(difluoromethyl)-7-({(R)-3-hydroxypyrrolidin-1-yl)methyl)pyrido[3,2-d]pyrimidin-4-yl)amino)-[1,1'-biphenyl]-3-yl)carbamoyl)-4,5,6,7-tetrahydropyrazolo[1,5-a]pyridin-4-yl)piperidine-4-carboxylic acid]: the 50% inhibitory concentration (IC50) is below 10 nM.
